{"source": "patent US11549123B2", "about": "“Plant EPSP synthases and methods of use” (PIONEER HI-BRED INTERNATIONAL, INC., priority 2015, dated 2023)", "assay_type_in_all_cases": "biochemical", "key": {"[1]": {"biological_target": "T1, Zea mays EPSPS variant Zm-H6 (868-H6) with H54E (H6-H54E) (Zea mays, UniProt O24566, A1R/A3W/A415G/A71Q/D401G/E301S/E390G/G101A/H53E/I207L/K83R/L97C/T278A/T360S/T440Q/V437R)", "T1 construct": "868-H6 plus H54E; E. coli BL21(DE3), Ni-NTA purified", "T1 sequence (O24566 with tags, fused parts or gaps A1R/A3W/H53E/A71Q/K83R/L97C/G101A/I207L/T278A/E301S/T360S/E390G/D401G/A415G/V437R/T440Q)": "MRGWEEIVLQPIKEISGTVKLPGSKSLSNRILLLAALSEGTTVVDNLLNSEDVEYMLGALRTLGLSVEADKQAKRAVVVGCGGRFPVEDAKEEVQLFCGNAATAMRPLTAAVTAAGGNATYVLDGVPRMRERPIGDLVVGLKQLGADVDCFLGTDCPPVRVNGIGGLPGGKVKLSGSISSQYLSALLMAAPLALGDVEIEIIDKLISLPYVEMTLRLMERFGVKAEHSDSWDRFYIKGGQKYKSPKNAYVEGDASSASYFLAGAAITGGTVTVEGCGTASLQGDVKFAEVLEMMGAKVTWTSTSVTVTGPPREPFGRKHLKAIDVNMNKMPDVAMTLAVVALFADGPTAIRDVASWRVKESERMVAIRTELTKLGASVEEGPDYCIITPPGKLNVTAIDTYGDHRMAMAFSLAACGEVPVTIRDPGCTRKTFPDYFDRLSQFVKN", "assay": "Rapid two-rate method for (kcat/KM)*KI, H6-H54E", "settings": "[E] 0.07 uM, [Gly] 1000 uM", "source_text": "(§1) There are several practical considerations for accurately estimating (kcat/KM)*KI with the rapid method. […] 2) The inhibitor concentration must be adjusted so as to obtain a degree of inhibition that minimally amplifies the error in the term v0-vi in Equation 3. If inhibition is too little, v0-vi will be small, and the error in the multiplier vi×v0/(v0-vi) will be large. […] 3) Substrate concentration should be set at the approximate KM of the parental variant(s), subject to the sensitivity of the assay. High substrate concentration obscures sensitivity to the inhibitor and reduces stringency for capturing improvements in KM. Depending on the necessity for speed, there exists opportunity for customizing enzyme and inhibitor concentrations. […] The rapid method was repeated for those and obtained data that correlated better with data obtained by substrate saturation analysis. For screening purposes however, that correlation step is not necessary. Conditions can be set so that variants with a pre-determined minimal fitness level are accurately quantified.\n(§2) In Table 15, parameters above the heavy line for the rapid method were obtained under standard conditions. For variants shown below the heavy line, the rapid analysis was repeated with enzyme or glyphosate concentrations adjusted as needed to generate sufficient signal within the limits for linear initial rates."}, "[2]": {"biological_target": "T2, Zea mays EPSPS variant Zm-H6 (868-H6) with V87T (H6-V87T) (Zea mays, UniProt O24566, A1R/A3W/A415G/A71Q/D401G/E301S/E390G/G101A/I207L/K83R/L97C/T278A/T360S/T440Q/V437R/V86T)", "T2 construct": "868-H6 plus V87T; E. coli BL21(DE3), Ni-NTA purified", "T2 sequence (O24566 with tags, fused parts or gaps A1R/A3W/A71Q/K83R/V86T/L97C/G101A/I207L/T278A/E301S/T360S/E390G/D401G/A415G/V437R/T440Q)": "T1 sequence (O24566 with tags, fused parts or gaps A1R/A3W/H53E/A71Q/K83R/L97C/G101A/I207L/T278A/E301S/T360S/E390G/D401G/A415G/V437R/T440Q) with E54H, V87T", "assay": "Rapid two-rate method for (kcat/KM)*KI, H6-V87T", "settings": "[E] 0.07 uM, [Gly] 1000 uM", "source_text": "as §1, §2"}, "[3]": {"biological_target": "Zea mays EPSPS variant 311S (Zea mays, UniProt O24566, P310S)", "sequence (O24566 entry or part of it P310S)": "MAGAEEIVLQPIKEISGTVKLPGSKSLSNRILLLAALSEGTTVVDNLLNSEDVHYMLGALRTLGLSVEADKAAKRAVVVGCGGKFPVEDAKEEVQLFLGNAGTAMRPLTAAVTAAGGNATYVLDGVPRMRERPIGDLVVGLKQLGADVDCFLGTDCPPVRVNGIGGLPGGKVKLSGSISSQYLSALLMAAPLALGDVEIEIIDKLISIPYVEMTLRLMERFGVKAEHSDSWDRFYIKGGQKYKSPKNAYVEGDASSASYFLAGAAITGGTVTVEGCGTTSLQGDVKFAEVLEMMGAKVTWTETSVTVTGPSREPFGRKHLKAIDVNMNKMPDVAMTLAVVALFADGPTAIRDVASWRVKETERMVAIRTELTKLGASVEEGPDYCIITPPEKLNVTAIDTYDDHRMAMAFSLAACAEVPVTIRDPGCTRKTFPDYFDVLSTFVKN", "assay": "EPSPS reaction rate with or without 10 uM glyphosate, 311S", "settings": "pH 7; read-out: Reaction rate with 10 μM glyph, % no glyph"}, "[4]": {"biological_target": "T3, Zea mays EPSPS variant Zm-P107S (Zea mays, UniProt O24566, P106S)", "T3 construct": "native maize plus P107S; E. coli BL21(DE3), Ni-NTA purified", "T3 sequence (O24566 with tags, fused parts or gaps P106S)": "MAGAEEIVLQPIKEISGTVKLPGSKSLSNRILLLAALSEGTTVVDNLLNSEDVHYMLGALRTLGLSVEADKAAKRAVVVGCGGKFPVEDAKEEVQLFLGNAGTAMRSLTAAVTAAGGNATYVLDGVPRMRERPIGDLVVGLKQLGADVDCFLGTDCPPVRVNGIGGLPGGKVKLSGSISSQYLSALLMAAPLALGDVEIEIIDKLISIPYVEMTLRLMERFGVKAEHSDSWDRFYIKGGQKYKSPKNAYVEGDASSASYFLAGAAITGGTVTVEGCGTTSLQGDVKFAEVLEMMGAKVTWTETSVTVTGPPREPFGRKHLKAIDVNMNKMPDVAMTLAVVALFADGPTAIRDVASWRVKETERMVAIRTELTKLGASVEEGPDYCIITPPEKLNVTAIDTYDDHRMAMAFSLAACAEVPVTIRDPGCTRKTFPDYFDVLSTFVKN", "assay": "Substrate saturation kinetic analysis with glyphosate, Zm-P107S"}, "[5]": {"biological_target": "T4, Zea mays EPSPS variant Zm-H6 (868-H6) with A69V (H6-A69V) (Zea mays, UniProt O24566, A1R/A3W/A415G/A68V/A71Q/D401G/E301S/E390G/G101A/I207L/K83R/L97C/T278A/T360S/T440Q/V437R)", "T4 sequence (O24566 with tags, fused parts or gaps A1R/A3W/A68V/A71Q/K83R/L97C/G101A/I207L/T278A/E301S/T360S/E390G/D401G/A415G/V437R/T440Q)": "T1 sequence (O24566 with tags, fused parts or gaps A1R/A3W/H53E/A71Q/K83R/L97C/G101A/I207L/T278A/E301S/T360S/E390G/D401G/A415G/V437R/T440Q) with E54H, A69V", "assay": "Rapid two-rate method for (kcat/KM)*KI, H6-A69V", "settings": "[E] 0.07 uM, [Gly] 1000 uM", "source_text": "as §1, §2"}}, "note": "Residue numbers refer to the chain shown, from its start. Wherever Reaction rate with 10 μM glyph, % no glyph is given: 50 µM PEP and S3P.", "data": [{"molecule": "O=C(O)CNCP(=O)(O)O", "note": "[glyphosate, N-phosphonomethylglycine]", "values": [{"measurement": "(kcat/KM)*KI", "setting": "[1]", "result": 4529}, {"measurement": "(kcat/KM)*KI", "setting": "[2]", "result": 3190}, {"measurement": "activity at 10 µM", "setting": "[3]", "result": 4.37, "unit": "%"}, {"measurement": "Ki", "setting": "[4]", "result": 420, "unit": "nM"}, {"measurement": "(kcat/KM)*KI", "setting": "[4]; substrate saturation, Zm-P107S", "result": 51}, {"measurement": "(kcat/KM)*KI", "setting": "[5]", "result": 2977}]}]}
